Converted amounts (≈) assume the structure as drawn. “And” between values parts separate entries of the source, which are not always exact repeats. Identical values can stand only once. Like-named read-outs stand apart in the source and are kept apart here.
Experiments:
[1] = tested on: influenza virus (K09) expressing GFP; type: cell-based; set-up: key: ◯ = effective; X = ineffective
[2] = tested on: novel influenza virus (K09); assay: microbe, parasite or virus in culture; type: cell-based; conditions: for EC50: MDCK, 72 h, read-out: Plaque reduction (Experimental Example 2) EC50
[3] = tested on: cell (MDCK) infected with an influenza virus (K09); assay: Cytotoxicity assay using MTT; type: cell-based; conditions: compound 24 hours
Method: (§1) In this experiment, a cell was infected with a virus, and then the virus was directly treated with a compound so as to determine if the virus-infected cell has toxicity. For this, a cell (MDCK) was infected with an influenza virus (K09) for 1 hour, and treated with the compound with different concentrations for 24 hours. Then, the cell was treated with a MTT reagent for 1 hour. After 1 hour, a formazan crystal produced by the MTT reagent was dissolved in DMSO, and the absorbance was measured by an ELISA reader so as to determine CC50.
(§2) measured by MTT assay. A maximum concentration of the compound, at which the number of cells is reduced to half or more compared to that of a control group

[4] = Acute toxicity test through oral administration in a rat; type: in vivo; conditions: male SD-Rat, single oral administration, 14 days observation; for LD50 at 14 days: Sprague-Dawley (SD), in vivo
Method: The acute toxicity of the inventive compound was determined through oral administration in a rat. Since the compound is expected to be orally administered in a clinical situation, an oral administration route was selected. A male rat aged 6 weeks (SD-Rat, 220±30 g) was subjected to quarantine, and acclimated for 1 week under a condition of lighting of 12 hours (08:00˜20:00), and luminance of 150-300 Lux at 22±3° C. at a relative humidity of 50±20%, while being freely fed with feed and water. Each of a control group and an experimental group include 8 rats. The control group was orally administered with 0.5% HPMC, and the experimental group was orally administered with a material (different concentrations) suspended in 0.5% HPMC, by using a sonde in an amount in proportion to the measured weight of each individual.
The concentration of the drug administered to the experimental group was set as 2000 mg/kg (the highest concentration for a single dose administration in a non-clinical test), and 1000 mg/kg, and 500 mg/kg (with a common ratio). For 14 days from drug administration, clinical symptoms were observed while the weight change was measured. Test animals that died during the test were subjected to autopsy, and abnormalities of main organs (heart, liver, lung, spleen, kidney, and large intestine) were observed and recorded. On the last day of the test (on the 14th day from the administration), all individuals were subjected to autopsy, and the changes of the organs caused by a test material were observed and compared to those in the control group. In the control group, no rats had died, and abnormalities were not observed through autopsy.
Each group was orally administered in a concentration of 500 mg/kg, 1000 mg/kg, and 2000 mg/kg. For 14 days from the administration, according to the test method, clinical symptoms were observed. […] Also, in the groups administered in various amounts, no individuals died. […] Further, no abnormal responses were observed, and from the autopsy results, no peculiarities were observed.

[5] = tested on: novel influenza virus (B/Field); assay: microbe, parasite or virus in culture; type: cell-based
[6] = Cytotoxicity assay using MTT; type: cell-based; conditions: dog, MDCK cells infected with influenza virus (K09), MDCK cell infected with K09; compound 24 hours; read-out: MTT assay (Experimental Example 3) CC50
Method: as §1, §2

[7] = tested on: H1N1 influenza virus (solomon); assay: microbe, parasite or virus in culture; type: cell-based
[8] = Influenza A virus, Solomon (H1N1), read-out: EC50

Row | SMILES | GFP reduction (Experimental Example 1) effect [1] | SI value K09 ([2]; K09, CC50/EC50) | Plaque reduction (Experimental Example 2) EC50 ([2]; K09, MDCK cell, 72 hours) [µg/mL] | MTT assay (Experimental Example 3) CC50 [3] | LD50 at 14 days [4] [mg/kg] | EC50 ([5]; unidentified influenza virus) [µg/mL] | EC50 [2] [µg/mL] | CC50 at 24 h [6] [µg/mL] | EC50 [7, 8] [µg/mL] | SI value ([7]; Solomon (H1N1), CC50/EC50) | LD50 [4] | SI value [5] | EC50 ([5]; B/Field) | Plaque reduction (Experimental Example 2) EC50 [2] [µg/mL] | SI value K09 [2] | SI value [7] | EC50 ([7]; Solomon (H1N1)) [µg/mL] | SI value ([5]; B/Field, CC50/EC50)
1 | COc1cccc(N2CCN(C(=O)c3c(-c4ccccc4C(F)(F)F)noc3N)CC2)c1 [Example 92] | ◯ | 0.32 to 1.59 | 21 to 45 | 14.62 to 33.52 µg/mL | – | – | – | – | – | – | – | – | – | – | – | – | – | –
2 | COc1cccc(N2CCN(C(=O)c3c(-c4ccccc4Cl)noc3C)CC2)c1 [Example 9, (3-(2-chlorophenyl)-5-methylisoxazol-4-yl)(4-(3-methoxyphenyl)piperazine-1-yl)methanone] | ◯ | 801.282 to 3205.128 | – | – | > 2000 | > 50 | 0.195 to 0.39 (≈ 0.473 to 0.947 µM) | 312 to 625 (≈ 759 to 1520 µM) | 0.048 to 0.097 (≈ 0.117 to 0.236 µM) | 3221.649 to 13020.833 | – | – | – | – | – | – | – | –
3 | Nc1onc(-c2ccccc2OC(F)(F)F)c1C(=O)N1CCN(c2ccc(Cl)c(Cl)c2)CC1 [Example 83] | ◯ | 100.2 to 291.75 | 0.65 to 1.5 | 150.3 to 189.64 µg/mL | – | – | – | – | – | – | 2,000< mg/kg | – | – | – | – | – | – | –
4 | CCOC(=O)C1CCN(C(=O)c2c(-c3ccccc3OC(F)(F)F)noc2N)CC1 [Example 124] | ◯ | – | – | 312.5 µg/mL | – | – | – | – | – | – | 2,000< mg/kg | 6.25> | 50< μg/ml | 3.125 to 6.25 | 50 to 100 | 50 | 6.25 (≈ 14.6 µM) | –
5 | Nc1onc(-c2ccc(OC(F)(F)F)cc2)c1C(=O)N1CCN(c2ccc(Cl)c(Cl)c2)CC1 [Example 99] | ◯ | 0.32 to 1.59 | 21 to 45 | 14.62 to 33.52 µg/mL | – | – | – | – | – | – | – | – | – | – | – | – | – | –
6 | Cc1onc(-c2ccccc2OC(F)(F)F)c1C(=O)N1CCN(c2ccc(Cl)c(Cl)c2)CC1 [Example 35, (4-(3,4-dichlorophenyl)piperazine-1-yl)(5-methyl-3-(2-(trifluoromethoxy)phenyl)isoxazol-4-yl)methanone] | ◯ | – | – | – | > 2000 | 6.25 (≈ 12.5 µM) | 0.395 to 0.781 (≈ 0.79 to 1.56 µM) | 312 to 625 (≈ 625 to 1250 µM) | 0.097 to 0.195 (≈ 0.194 to 0.39 µM) | 1602.564 to 6443.298 | – | – | – | – | – | – | – | 50 to 100
7 | Cc1onc(-c2cccc(F)c2)c1C(=O)N1CCN(c2ccc(Cl)c(Cl)c2)CC1 [Example 11, (4-(3,4-dichlorophenyl)piperazine-1-yl)(3-(3-fluorophenyl)-5-methylisoxazol-4-yl)methanone] | ◯ | – | – | – | > 2000 | 4.25 (≈ 9.79 µM) | < 0.16 | 287 to 625 (≈ 661 to 1440 µM) | 0.087 to 0.199 (≈ 0.2 to 0.458 µM) | 1442.211 to 7183.908 | – | – | – | – | – | – | – | 67.529 to 147.058
8 | COc1cccc(N2CCN(C(=O)c3c(-c4ccccc4C(F)(F)F)noc3C)CC2)c1 [Example 3, (4-(3-methoxyphenyl)piperazine-1-yl)(5-methyl-3-(2-(trifluoromethyl)phenyl)isoxazol-4-yl)methanone] | ◯ | 473.84 to 1903.03 | – | – | > 2000 | > 50 | 0.33 to 0.65 (≈ 0.741 to 1.46 µM) | 308 to 628 (≈ 691 to 1410 µM) | 0.064 to 0.094 (≈ 0.144 to 0.211 µM) | 3276.59 to 9812.50 | – | – | – | – | – | – | – | –
9 | COc1ccccc1N1CCN(C(=O)c2c(-c3ccccc3C(F)(F)F)noc2C)CC1 [Example 4] | ◯ | – | – | 78.12 to 156.25 µg/mL and 78.125 to 156.25 µg/mL | – | – | – | – | – | – | 2,000< mg/kg | 1.563> | 50< μg/ml | 12.5 to 25 | 3.125 to 12.5 | 6.25 to 12.5 | 12.5 (≈ 28.1 µM) | –
10 | COc1cccc(N2CCN(C(=O)c3c(-c4cccc(F)c4)noc3C)CC2)c1 [Example 12, (3-(3-fluorophenyl)-5-methylisoxazol-4-yl)(4-(3-methoxyphenyl)piperazine-1-yl)methanone] | ◯ | 25 to 50 | – | – | > 2000 | > 50 | 3.12 (≈ 7.9 µM) | 78.1 to 156 (≈ 198 to 395 µM) | 0.781 (≈ 1.98 µM) | 100.032 to 200.064 | – | – | – | – | – | – | – | –
11 | Cc1onc(-c2cccc(F)c2)c1C(=O)N1CCN(c2ccccc2O)CC1 [Example 16, (3-(3-fluorophenyl)-5-methylisoxazol-4-yl)(4-(2-hydroxyphenyl)piperazine-1-yl)methanone] | ◯ | 200.321 | – | 78.125 µg/mL | > 2000 | 25 (≈ 65.5 µM) | 0.39 (≈ 1.02 µM) | 78.1 (≈ 205 µM) | 0.097 to 0.195 (≈ 0.254 to 0.511 µM) | 400.641 to 805.412 | – | – | – | – | – | – | – | 3.125
12 | COc1cccc(N2CCN(C(=O)c3c(-c4ccccc4Cl)noc3N)CC2)c1 [Example 60, (5-amino-3-(2-chlorophenyl)isoxazol-4-yl)(4-(3-methoxyphenyl)piperazine-1-yl)methanone] | ◯ | – | – | – | > 2000 | 6.25 (≈ 15.1 µM) | 0.195 (≈ 0.473 µM) | > 500 | 0.053 to 0.094 (≈ 0.128 to 0.228 µM) | – | – | – | – | – | – | – | – | 80<
13 | CCOC(=O)C1=C[C@@H](OC(CC)CC)[C@H](NC(C)=O)[C@@H](N)C1 [Oseltamivir, reference compound] | X | – | – | – | > 2000 | 6.25 (≈ 20 µM) | 0.391 (≈ 1.25 µM) | 625 to 1250 (≈ 2000 to 4000 µM) | 3.12 to 6.25 (≈ 10 to 20 µM) | 100 to 400 | – | – | – | – | – | – | – | 200 to 100
14 | COc1cccc(N2CCN(C(=O)c3c(-c4ccccc4OC(F)(F)F)noc3C)CC2)c1 [Example 36] | ◯ | 320< | 1.56 | 500< μg/ml | – | – | – | – | – | – | – | – | – | – | – | – | – | –

Reference: US9132126B2, “Phenyl-isoxazole derivatives and preparation process thereof” (priority 2011, dated 2015)
